Where a name gives a salt, the structure may show the parent alone. Read-outs that look alike come from different tables or passages of the source.
How the values were obtained:
[1] = 2 ml 1N HCl, 5 hours
Procedure: (§1) 4.1 The stress stability of various salts of the clopidogrel was tested under different conditions. […] The following tests were conducted:
Then the flask is kept either at room temperature for 5 hours or at 80° C. for 5 hours.
(§2) The result is determined by means of HPLC.
(§3) In all cases, the HPLC measurements were carried out under the following conditions with UV detection: […]

[2] = for stress stability result by HPLC, alkaline: 2 ml 1N NaOH, 5 hours
Procedure: as §1
Then the flask is held either at room temperature for 5 hours or at 80° C. for 5 hours.
as §2, §3

[3] = 5 hours
Procedure: as §1
(§4) 50 mg of the salt concerned are weighed into a volumetric flask (100 ml) and 2 ml of 3% H2O2 added. Then the flask is kept either at room temperature for 5 hours or at 80° C. for 5 hours. After the end of each experiment and, optionally, cooling to room temperature, the mobile phase is added up to 100 ml.
as §2, §3

[4] = 2 ml water, 5 hours
Procedure: as §1
as §4, with “water” for “3% H2O2”
as §2, §3

[5] = Procedure: as §1
50 mg of the salt concerned are weighed into a volumetric flask (100 ml) and held at 80° C. for 20 hours. After the end of each experiment and cooling to room temperature, the mobile phase is added up to 100 ml.
as §2, §3

[6] = 40 and 60° C., 75% relative humidity, 15 days, FIG. 4
[7] = tables 1 to 4
[8] = 75% relative humidity

content after 15 days (initial value normalised to 100%) ([8]; 40° C.) | content after 15 days (initial value normalised to 100%) ([8]; 60° C.) | Compound | stress stability result by HPLC, acidic ([1]; 80° C.) | stress stability result by HPLC, acidic ([1]; room temperature) | stress stability result by HPLC, alkaline ([2]; 80° C.) | stress stability result by HPLC, alkaline ([2]; room temperature) | stress stability result by HPLC, oxidising ([3]; 2 ml 3% H2O2, 80° C.) | stress stability result by HPLC, oxidising ([3]; 2 ml 3% H2O2, room temperature) | stress stability result by HPLC, neutral ([4]; 80° C.) | stress stability result by HPLC, neutral ([4]; room temperature) | stress stability result by HPLC, heat ([5]; solid salt, 80° C., 20 hours) | stress stability result by HPLC, heat ([5]; 20 h) | also measured
– | – | COC(=O)[C@H](c1ccccc1Cl)N1CCc2sccc2C1.O=S(=O)(O)c1ccccc1 [Clopidogrel Benzene Sulfonate (Amorphous)] | 2.36% | 0.64% | 25.04% | 0.64% | 2.94% | 0.83% | 3.01% | 0.85% | 11.52% | – | stability under alkaline conditions in comparison with the hydrogen sulfate and hydrochloride salts ([2]; alkaline conditions): considerably increased stability
– | – | COC(=O)[C@H](c1ccccc1Cl)N1CCc2sccc2C1.O=S(=O)(O)c1ccccc1 [Clopidogrel Benzene Sulfonate (Crystalline)] | 2.76% | 0.14% | 28.05% | 0.14% | 3.98% | 0.13% | 4.18% | 0.19% | 4.52% | – | stability (decrease of content), compared with hydrogen sulfate and hydrochloride [6]: best stability values; stability in comparison with other salts (stress tests) [7]: even more stable than clopidogrel hydrogen sulfate
– | – | COC(=O)[C@H](c1ccccc1Cl)N1CCc2sccc2C1 [Clopidogrel Hydrogen Sulfate, clopidogrel hydrogen sulfate, reference compound] | – | – | – | – | – | – | – | – | – | 0.31% | –
103.32% | 66.48% | Clopidogrel besylate | – | – | – | – | – | – | – | – | – | – | –
97.56% | 17.11% | Clopidogrel mesylate | – | – | – | – | – | – | – | – | – | – | –

Compound | content after 15 days (initial value normalised to 100%) ([8]; 40° C.) | content after 15 days (initial value normalised to 100%) ([8]; 60° C.) | stress stability result by HPLC, acidic ([1]; 80° C.) | stress stability result by HPLC, acidic ([1]; room temperature) | stress stability result by HPLC, alkaline ([2]; 80° C.) | stress stability result by HPLC, alkaline ([2]; room temperature) | stress stability result by HPLC, oxidising ([3]; 2 ml 3% H2O2, 80° C.) | stress stability result by HPLC, oxidising ([3]; 2 ml 3% H2O2, room temperature) | stress stability result by HPLC, neutral ([4]; 80° C.) | stress stability result by HPLC, neutral ([4]; room temperature) | stress stability result by HPLC, heat ([5]; solid salt, 80° C., 20 hours) | stress stability result by HPLC, heat ([5]; 20 h) | also measured
COC(=O)[C@H](c1ccccc1Cl)N1CCc2sccc2C1 [Clopidogrel Hydrochloride, clopidogrel hydrochloride, reference compound] | 93.66% | 42.54% | – | – | – | – | – | – | – | – | – | 32.43% | –
